Assay results: patent US10745357B2, “Process for preparing quinolin-2-yl-phenylamine derivatives and their salts” (priority 2016, dated 2020)
≈ marks a conversion by molar mass, not a printed value.

What was measured:
[1] = Hygroscopicity by Dynamic Vapor Sorption Analysis (DVS); type: physicochemical; settings: for Reversibility of water uptake / weight increase / Humidity absorption (in words) / Weight increase (hygroscopicity) / Changes of the crystalline form associated with water uptake: DVS; for Humidity absorption (in words): 0 to 95% RH; for Weight increase (hygroscopicity): humidity 0 to 95% RH, maximum
Procedure: The hygroscopicity was determined by Dynamic Vapor Sorption Analysis (DVS). Approximately 200 mg of each solid state were weight on a sample plate and subjected to the apparatus. The humidity inside was varied in a range from 0 to 95% RH and the mass change (dm [%]) of the samples measured continuously.

[2] = Aqueous solubility in four aqueous buffers with distinct pH values; type: physicochemical; settings: for solubility at 15 min / solubility at 1 h: thermodynamic from solid; for Solubility in aqueous solutions (in words): summary of the four buffers
Procedure: The solubility properties of the generated solid states were studied in four different aqueous buffers with distinct pH values. Approximately 250 mg of each sample was mixed with 2.5 ml solvent and stirred.

[3] = test system: HIV; settings: preclinical; lasted for several weeks after cessation of treatment; cited from earlier work
[4] = test system: normal cellular splicing; settings: cited from earlier work
[5] = test system: HIV-1 replication; settings: prevents export of viral RNA from nucleus to cytoplasm in infected cells; cited from earlier work
[6] = phase I trials; dose levels up to 200 mg; without clinically significant abnormal results; cited from earlier work
[7] = aqueous buffer, fassif, FaSSiF (SIF-powder), 15 min
[8] = aqueous buffer, fassif, FaSSiF (SIF-powder), 1 h
[9] = aqueous buffer, pH 2.2, simulated gastric fluid, 0.01N HCl pH ~2.2, 15 min
[10] = aqueous buffer, pH 2.2, simulated gastric fluid, 0.01N HCl pH ~2.2, 1 h
[11] = aqueous buffer, pH 4.5, aqueous buffer, 20 mM Na-acetate pH 4.5, 15 min
[12] = aqueous buffer, pH 4.5, aqueous buffer, 20 mM Na-acetate pH 4.5, 1 h
[13] = aqueous buffer, pH 6.8, aqueous buffer, 50 mM KH2PO4 pH 6.8, 15 min
[14] = aqueous buffer, pH 6.8, aqueous buffer, 50 mM KH2PO4 pH 6.8, 1 h

SMILES | Reversibility of water uptake / weight increase [1] | Humidity absorption (in words) [1] | Weight increase (hygroscopicity) [1] | Relative weight change (dm) ([1]; RH 40% (start)) | Relative weight change (dm) ([1]; RH 40 → 0% (first step to 0)) | Relative weight change (dm) ([1]; RH 95 → 40% (desorption)) | Relative weight change (dm) ([1]; RH → 0% (second step to 0)) | Relative weight change (dm) ([1]; RH → 35% (final step)) | Relative weight change (dm) ([1]; RH → 75%) | Relative weight change (dm) ([1]; RH → 95%) | Solubility in aqueous solutions (in words) [2] | Changes of the crystalline form associated with water uptake [1] | solubility at 15 min [2, 7] | solubility at 1 h [2, 8] | solubility at 15 min [2, 9] | solubility at 1 h [2, 10] | solubility at 15 min [2, 11] | solubility at 1 h [2, 12] | solubility at 15 min [2, 13] | solubility at 1 h [2, 14] | further results
FC(F)(F)Oc1ccc(Nc2ccc3cccc(Cl)c3n2)cc1.O=S(=O)(O)O [H2SO4, (8-chloro-quinolin-2-yl)-(4-trifluoromethoxyphenyl)-amine] | reversible | low hygroscopicity | ≤ 3.2% | 0% | −0.11% | 0.03% | −0.14% | −0.04% | 0.32% | 3.2% | first-rate solubility |  |  |  |  |  |  |  |  |  | solubility at 15 min ([2]; aqueous buffer, 20 mM Na-acetate pH 4.5, 15 min): 93 µg/mL; solubility at 1 h ([2]; aqueous buffer, 20 mM Na-acetate pH 4.5, 1 h): 139 µg/mL; solubility at 15 min ([2]; aqueous buffer, 50 mM KH2PO4 pH 6.8, 15 min): 35 µg/mL; solubility at 1 h ([2]; aqueous buffer, 50 mM KH2PO4 pH 6.8, 1 h): 114 µg/mL; solubility at 15 min ([2]; simulated gastric fluid, 0.01N HCl pH ~2.2, 15 min): 89 µg/mL; solubility at 1 h ([2]; simulated gastric fluid, 0.01N HCl pH ~2.2, 1 h): 152 µg/mL; solubility at 15 min ([2]; FaSSiF (SIF-powder), 15 min): 109 µg/mL; solubility at 1 h ([2]; FaSSiF (SIF-powder), 1 h): 157 µg/mL
Cl.FC(F)(F)Oc1ccc(Nc2ccc3cccc(Cl)c3n2)cc1 [HCl, (8-chloro-quinolin-2-yl)-(4-trifluoromethoxyphenyl)-amine] | irreversible |  |  | 0% | −0.11% | 7.8% | 2.8% | 5.1% | 1.7% | 14.3% | first-rate solubility | significant changes | 111 µg/mL | 198 µg/mL | 116 µg/mL | 147 µg/mL | 74 µg/mL | 136 µg/mL | 68 µg/mL | 104 µg/mL | 
FC(F)(F)Oc1ccc(Nc2ccc3cccc(Cl)c3n2)cc1.O=S(=O)(O)c1ccccc1 [besylate, (8-chloro-quinolin-2-yl)-(4-trifluoromethoxyphenyl)-amine] | reversible | low hygroscopicity | up to 1.9% | 0% | −0.04% | 1.1% | −0.09% | 1.0% | 0.19% | 1.9% |  | only minor | 77 µg/mL | 45 µg/mL | 23 µg/mL | 32 µg/mL | 24 µg/mL | 16 µg/mL | 3 µg/mL | 7 µg/mL | 
FC(F)(F)Oc1ccc(Nc2ccc3cccc(Cl)c3n2)cc1 [free base, (8-chloro-quinolin-2-yl)-(4-trifluoromethoxy-phenyl)-amine] |  | absorbs more or less not any humidity |  | 0% | 0% | 0.03% | 0.02% | 0.02% | 0.02% | 0.15% |  |  | 64 µg/mL (≈ 189 µM) | 61 µg/mL (≈ 180 µM) |  |  |  |  |  |  | Reduction of viral load [3]: sustained reduction of viral load; Selectivity / effect on normal cellular splicing [4]: doesn't affect normal cellular splicing; HIV replication [5]: inhibits HIV replication; Solubility ([2]; 0.01N HCl pH ~2.2, 15 min): 3 µg/mL (≈ 8.86 µM); Solubility ([2]; 0.01N HCl pH ~2.2, 1 h): 4 µg/mL (≈ 11.8 µM); Solubility in aqueous solutions with different pH-values ([2]; compound from reworked WO 2010/143169 procedure, recrystallized, pH values simulating physiological conditions): virtual insolubility; Tolerability [6]: well tolerated
FC(F)(F)Oc1ccc(Nc2ccc3cccc(Cl)c3n2)cc1 [hemi-edisylate, (8-chloro-quinolin-2-yl)-(4-trifluoromethoxyphenyl)-amine] | irreversible |  |  | 0% |  |  |  |  |  |  |  | significant changes |  |  |  |  | 48 µg/mL (≈ 142 µM) | 50 µg/mL (≈ 148 µM) | 18 µg/mL (≈ 53.1 µM) | 23 µg/mL (≈ 67.9 µM) | Relative weight change (dm) ([1]; RH 40 → 0% (first step to 0), listed as Hemiedisylate salt): −0.65%; Relative weight change (dm) ([1]; RH 95 → 40% (desorption), listed as Hemiedisylate salt): 3.5%; Relative weight change (dm) ([1]; RH → 0% (second step to 0), listed as Hemiedisylate salt): 0.4%; Relative weight change (dm) ([1]; RH → 35% (final step), listed as Hemiedisylate salt): 2.9%; Relative weight change (dm) ([1]; RH → 75%, listed as Hemiedisylate salt): 0.74%; Relative weight change (dm) ([1]; RH → 95%, listed as Hemiedisylate salt): 36.2%; Solubility ([2]; 0.01N HCl pH ~2.2, 15 min): 75 µg/mL (≈ 221 µM); Solubility ([2]; 0.01N HCl pH ~2.2, 1 h): 65 µg/mL (≈ 192 µM)
Cc1ccc(S(=O)(=O)O)cc1.FC(F)(F)Oc1ccc(Nc2ccc3cccc(Cl)c3n2)cc1 [tosylate, (8-chloro-quinolin-2-yl)-(4-trifluoromethoxyphenyl)-amine] |  | absorbs more or less not any humidity |  | 0% | −0.05% | −0.03% | −0.09% | −0.05% | 0.05% | 0.24% |  |  | 30 µg/mL | 13 µg/mL | 6 µg/mL | 10 µg/mL |  | 3 µg/mL |  |  | 
